Source: patent US8415351B2 (priority 2007, dated 2013)

Tests used:
[1] = system: genotype 1b-Con1 subgenomic replicon cell line; assay: microbe, parasite or virus in culture; assay type: cell-based, HCV; conditions: Hepatitis C virus, read-out: EC50 1b
[2] = system: genotype 1a-H77 subgenomic replicon cell line; assay: microbe, parasite or virus in culture; assay type: cell-based, HCV; conditions: Hepatitis C virus, read-out: EC50 1a

## COc1c(/C=C/c2ccc(NS(C)(=O)=O)cc2)cc(-n2ccc(=O)[nH]c2=O)cc1C(C)(C)C [IB-L1-1.1, (E)-N-(4-(3-tert-butyl-5-(2,4-dioxo-3,4-dihydropyrimidin-1(2H)-yl)-2-methoxystyryl)phenyl)methanesulfonamide]
[1]
  EC50: < 10 nM
[2]
  EC50: < 10 nM

## COc1c(-c2nc3cc(NS(C)(=O)=O)ccc3s2)cc(N2CCC(=O)NC2=O)cc1C(C)(C)C [IA-L0-2.4, N-(2-(3-tert-butyl-5-(2,4-dioxotetrahydropyrimidin-1(2H)-yl)-2-methoxyphenyl)benzo[d]thiazol-5-yl)methanesulfonamide]
[1]
  EC50: 100 to 1000 nM
[2]
  EC50: > 1000 nM

## COCCNC(=O)c1cc(NS(C)(=O)=O)ccc1/C=C/c1cc(-n2ccc(=O)[nH]c2=O)cc(C(C)(C)C)c1OC [IB-L1-1.9, 2-{(E)-2-[3-tert-Butyl-5-(2,4-dioxo-3,4-dihydro-2H-pyrimidin-1-yl)-2-methoxy-phenyl]-vinyl}-5-methanesulfonylamino-N-(2-methoxy-ethyl)-benzamide]
[1]
  EC50: < 10 nM
[2]
  EC50: 10 to 100 nM

## COc1c(-c2ccoc2)cc(-n2ccc(=O)[nH]c2=O)cc1-c1ccc2cc(NS(C)(=O)=O)ccc2c1 [IB-L0-2.64, N-(6-(5-(2,4-dioxo-3,4-dihydropyrimidin-1(2H)-yl)-3-(furan-3-yl)-2-methoxyphenyl)naphthalen-2-yl)methanesulfonamide]
[1]
  EC50: < 10 nM
[2]
  EC50: 100 to 1000 nM

## COc1c(-c2ccc3c(c2)/C(=N/NS(C)(=O)=O)CC3)cc(-n2ccc(=O)[nH]c2=O)cc1-c1cccs1 [IB-L0-2.51, (E)-N′-(6-(5-(2,4-dioxo-3,4-dihydropyrimidin-1(2H)-yl)-2-methoxy-3-(thiophen-2-yl)phenyl)-2,3-dihydro-1H-inden-1-ylidene)methanesulfonohydrazide]
[1]
  EC50: < 10 nM
[2]
  EC50: 10 to 100 nM

## COc1c(-c2ccc3cc(NS(C)(=O)=O)ccc3c2)cc(-n2ccc(=O)[nH]c2=O)cc1S(C)(=O)=O [IB-L0-2.68, N-(6-(5-(2,4-dioxo-3,4-dihydropyrimidin-1(2H)-yl)-2-methoxy-3-(methylsulfonyl)phenyl)naphthalen-2-yl)methanesulfonamide]
[1]
  EC50: 100 to 1000 nM
[2]
  EC50: > 1000 nM

## COCCN(C)C(=O)c1cc(NS(C)(=O)=O)ccc1/C=C/c1cc(-n2ccc(=O)[nH]c2=O)cc(C(C)(C)C)c1OC [IB-L1-1.24, 2-{(E)-2-[3-tert-butyl-5-(2,4-dioxo-3,4-dihydro-2H-pyrimidin-1-yl)-2-methoxy-phenyl]-vinyl}-5-methanesulfonylamino-N-(2-methoxy-ethyl)-N-methyl-benzamide]
[1]
  EC50: < 10 nM
[2]
  EC50: 10 to 100 nM

## COc1c(-c2ccc3c(c2)CCN(NS(C)(=O)=O)C3)cc(-n2ccc(=O)[nH]c2=O)cc1C(C)(C)C [IB-L0-2.43, N-(6-(3-tert-butyl-5-(2,4-dioxo-3,4-dihydropyrimidin-1(2H)-yl)-2-methoxyphenyl)-3,4-dihydroisoquinolin-2(1B)-yl)methanesulfonamide]
[1]
  EC50: 100 to 1000 nM
[2]
  EC50: > 1000 nM

## CC(C)(C)c1cc(/C=C/c2ccc(NS(C)(=O)=O)cc2)cc(N2CCC(=O)NC2=O)c1 [IA-L1-1.16, (E)-N-(4-(3-tert-butyl-5-(2,4-dioxotetrahydropyrimidin-1(2H)-yl)styryl)phenyl)methanesulfonamide]
[1]
  EC50: 10 to 100 nM
[2]
  EC50: 10 to 100 nM

## COc1c(/C=C/c2ccc(NS(C)(=O)=O)cc2C(=O)N(C)C2CCS(=O)(=O)C2)cc(-n2ccc(=O)[nH]c2=O)cc1C(C)(C)C (centres unmarked) [IB-L1-1.18, 2-{(E)-2-[3-tert-butyl-5-(2,4-dioxo-3,4-dihydro-2H-pyrimidin-1-yl)-2-methoxy-phenyl]-vinyl}-N-(1,1-dioxo-tetrahydro-1lambda*6*-thiophen-3-yl)-5-methanesulfonylamino-N-methyl-benzamide]
[1]
  EC50: 10 to 100 nM
[2]
  EC50: 10 to 100 nM

## COc1c(-c2nc3cc(NS(C)(=O)=O)ccc3o2)cc(-n2ccc(=O)[nH]c2=O)cc1C(C)(C)C [IB-L0-2.6, N-(2-(3-tert-butyl-5-(2,4-dioxo-3,4-dihydropyrimidin-1(2H)-yl)-2-methoxyphenyl)benzo[d]oxazol-5-yl)methanesulfonamide]
[1]
  EC50: 10 to 100 nM
[2]
  EC50: 100 to 1000 nM

## COc1c(/C=C/c2ccc(NS(C)(=O)=O)cc2C=O)cc(-n2ccc(=O)[nH]c2=O)cc1C(C)(C)C [IB-L1-1.6, N-(4-{(E)-2-[3-tert-Butyl-5-(2,4-dioxo-3,4-dihydro-2H-pyrimidin-1-yl)-2-methoxy-phenyl]-vinyl}-3-formyl-phenyl)-methanesulfonamide]
[1]
  EC50: < 10 nM
[2]
  EC50: < 10 nM

## CC(C)(C)c1cc(CCc2ccc(NS(C)(=O)=O)cc2)cc(N2CCC(=O)NC2=O)c1 [IA-L5-2-1.2, N-(4-(3-tert-butyl-5-(2,4-dioxotetrahydropyrimidin-1(2H)-yl)phenethyl)phenyl)methane sulfonamide]
[1]
  EC50: 100 to 1000 nM
[2]
  EC50: 100 to 1000 nM

## COc1c(/C=C/c2ccc(NS(C)(=O)=O)cc2)cc(N2CCC(=O)NC2=O)cc1C(C)(C)C [IA-L1-1.9, (E)-N-(4-(3-tert-butyl-5-(2,4-dioxotetrahydropyrimidin-1(2H)-yl)-2-methoxystyryl)phenyl)methanesulfonamide]
[1]
  EC50: < 10 nM
[2]
  EC50: 10 to 100 nM

## COc1c(-c2ccccc2)cc(-n2ccc(=O)[nH]c2=O)cc1-c1ccc2cc(NS(C)(=O)=O)ccc2c1 [IB-L0-2.71, N-(6-(5-(2,4-dioxo-3,4-dihydropyrimidin-1(2H)-yl)-2-methoxy-biphenyl-3-yl)naphthalen-2-yl)methanesulfonamide]
[1]
  EC50: 10 to 100 nM
[2]
  EC50: 100 to 1000 nM

## COc1c(N2CCc3cc(NS(C)(=O)=O)ccc3C2)cc(-n2ccc(=O)[nH]c2=O)cc1C(C)(C)C [IB-L0-2.19, N-(2-(3-tert-butyl-5-(2,4-dioxo-3,4-dihydropyrimidin-1(2H)-yl)-2-methoxyphenyl)-1,2,3,4-tetrahydroisoquinolin-6-yl)methanesulfonamide]
[1]
  EC50: 10 to 100 nM
[2]
  EC50: 10 to 100 nM

## COc1c(-c2ccc3ccccc3c2)cc(-n2ccc(=O)[nH]c2=O)cc1C(C)(C)C [IB-L0-2.1, 1-(3-tert-butyl-4-methoxy-5-(naphthalen-2-yl)phenyl)pyrimidine-2,4(1H,3H)-dione]
[1]
  EC50: 100 to 1000 nM
[2]
  EC50: > 1000 nM

## CO/C(=C\c1cc(N2CCC(=O)NC2=O)cc(C(C)(C)C)c1OC)c1ccc(NS(C)(=O)=O)cc1 [IA-L1-1.17, (Z)—N-(4-(2-(3-tert-butyl-5-(2,4-dioxotetrahydropyrimidin-1(2H)-yl)-2-methoxyphenyl)-1-methoxyvinyl)phenyl)methanesulfonamide]
[1]
  EC50: 10 to 100 nM
[2]
  EC50: 10 to 100 nM

## COc1c(/C=C/c2ccc(NS(C)(=O)=O)cc2COC(C)C)cc(-n2ccc(=O)[nH]c2=O)cc1C(C)(C)C [IB-L1-1.25, N-(4-{(E)-2-[3-tert-butyl-5-(2,4-dioxo-3,4-dihydro-2H-pyrimidin-1-yl)-2-methoxy-phenyl]-vinyl}-3-isopropoxymethyl-phenyl)-methanesulfonamide]
[1]
  EC50: < 10 nM
[2]
  EC50: 10 to 100 nM

## COc1c(/C=C/c2ccc(NS(C)(=O)=O)cc2C(N)=O)cc(-n2ccc(=O)[nH]c2=O)cc1C(C)(C)C [IB-L1-1.21, 2-{(E)-2-[3-tert-butyl-5-(2,4-dioxo-3,4-dihydro-2H-pyrimidin-1-yl)-2-methoxy-phenyl]-vinyl}-5-methanesulfonylamino-benzamide]
[1]
  EC50: < 10 nM
[2]
  EC50: 10 to 100 nM

## COc1c(-c2ccc3cc(NS(C)(=O)=O)ccc3c2)cc(-n2ccc(=O)[nH]c2=O)cc1-c1cccs1 [IB-L0-2.61, N-(6-(5-(2,4-dioxo-3,4-dihydropyrimidin-1(2H)-yl)-2-methoxy-3-(thiophen-2-yl)phenyl)naphthalen-2-yl)methanesulfonamide]
[1]
  EC50: 10 to 100 nM
[2]
  EC50: 100 to 1000 nM

## COc1c(/C=C(\Cl)c2ccc([N+](=O)[O-])cc2)cc(N2CCC(=O)NC2=O)cc1C(C)(C)C [IA-L1-1.23, 1-{3-tert-butyl-5-[(Z)-2-chloro-2-(4-nitro-phenyl)-vinyl]-4-methoxy-phenyl}-dihydro-pyrimidine-2,4-dione]
[1]
  EC50: > 1000 nM
[2]
  EC50: > 1000 nM

## COc1c(-c2ccc3nc(NS(C)(=O)=O)cnc3c2)cc(-n2ccc(=O)[nH]c2=O)cc1C(C)(C)C [IB-L0-2.26, N-(6-(3-tert-butyl-5-(2,4-dioxo-3,4-dihydropyrimidin-1(2H)-yl)-2-methoxyphenyl)quinoxalin-2-yl)methanesulfonamide]
[1]
  EC50: 100 to 1000 nM
[2]
  EC50: > 1000 nM

## COc1c(/C=C/c2ccc(NS(C)(=O)=O)cc2C(=O)O)cc(-n2ccc(=O)[nH]c2=O)cc1C(C)(C)C [IB-L1-1.4, (E)-2-(3-tert-butyl-5-(2,4-dioxo-3,4-dihydropyrimidin-1(2H)-yl)-2-methoxystyryl)-5-(methylsulfonamido)benzoic acid]
[1]
  EC50: < 10 nM
[2]
  EC50: 10 to 100 nM

## COc1c(/C=C/c2ccccc2)cc(N2CCC(=O)NC2=O)cc1C(C)(C)C [IA-L1-1.18, (E)-1-(3-tert-butyl-4-methoxy-5-styrylphenyl)dihydro-pyrimidine-2,4(1H,3H)-dione]
[1]
  EC50: 100 to 1000 nM
[2]
  EC50: 100 to 1000 nM

## COc1c(-c2ccc3c(c2)CNC3=O)cc(-n2ccc(=O)[nH]c2=O)cc1C(C)(C)C [IB-L0-2.30, 1-(3-tert-butyl-4-methoxy-5-(1-oxoisoindolin-5-yl)phenyl)-pyrimidine-2,4(1H,3H)-dione]
[1]
  EC50: 10 to 100 nM
[2]
  EC50: 100 to 1000 nM

## COc1c(/C=C/c2ccc(N(C(C)=O)S(C)(=O)=O)cc2)cc(N2CCC(=O)NC2=O)cc1C(C)(C)C [IA-L1-1.11, (E)-N-(4-(3-tert-butyl-5-(2,4-dioxotetrahydropyrimidin-1(2H)-yl)-2-methoxystyryl)phenyl)-N-(methylsulfonyl)acetamide]
[1]
  EC50: < 10 nM
[2]
  EC50: < 10 nM

## COc1c(/C=C/c2ccc(NS(C)(=O)=O)cc2CN2CC(O)C2)cc(-n2ccc(=O)[nH]c2=O)cc1C(C)(C)C [IB-L1-1.29, N-[4-{(E)-2-[3-tert-butyl-5-(2,4-dioxo-3,4-dihydro-2H-pyrimidin-1-yl)-2-methoxy-phenyl]-vinyl}-3-(3-hydroxy-azetidin-1-ylmethyl)-phenyl]-methanesulfonamide]
[1]
  EC50: 100 to 1000 nM
[2]
  EC50: 100 to 1000 nM
